# Assay results from patent US20250221413A1, “Use and Preparation Method of Sulfoxamyl, and Oxidation System” (priority 2023, published 2025).
# Several values for one entry are separate records, joined by “and”; a condition that tells them apart may be missing. Identical values can stand only once. Entries after “also recorded” stand apart in the source; their conditions may differ. Like-named read-outs stand apart in the source and are kept apart here.
# Experiments:
# [1] = test system: SD rats; assay: Acute oral toxicity test, single oral fixed-dose procedure; assay type: in vivo
# Protocol: Materials: the test agent 98% sulfoxamyl technical, batch number 20230708-1, was provided by Ningxia Hugerise Chemical Co., Ltd. Experimental animals: SPF-grade SD rats, half male and half female, weighing 180 g to 220 g, were provided by Jinan Pengyue Experimental Animal Breeding Co., Ltd., license number SCXK (Lu) 20190003. Rearing environment: the rats were housed in an SPF-grade animal room with free access to water and food, a temperature of 20° C. to 25° C., a humidity of 40% to 60%, and a 12 h/12 h light cycle. Feed: conventional pellet feed was provided by Jinan Pengyue Experimental Animal Breeding Co., Ltd.
# The test was conducted in accordance with “Toxicological test methods of pesticides for registration, GB15670.5-2017”, “Acute toxicity test, GB15193.3-2003” and relevant acute toxicity research data.
# Methods: a single oral fixed-dose procedure was conducted to preliminarily explore the toxic dose range of sulfoxamyl. LD50 and confidence limits were calculated by using the probability unit method (Bliss method). SD rats were randomly divided into 5 groups, 10 rats in each group, half of them were male and half were female. […] The common ratio value among each dose group was 0.75. After a single oral administration, the mortality rate of the experimental animals was recorded within 24 h and 14 days after administration, while the general condition of the animals was observed, and the food intake and body weight changes were recorded.
# [2] = Half-life test (hydrolysis in neutral distilled water, HPLC); assay type: physicochemical
# From the text: A 98% sulfoxamyl sample was quantitatively dissolved in neutral distilled water, and samples were taken and injected at certain time intervals under HPLC detection. Data were collected according to the area normalization method based on the integrated sulfoxamyl peak area ratio.
# [3] = test system: Meloidogyne incognita; assay: Indoor toxicity test against Meloidogyne incognita second-instar larvae (J2); conditions: for LC50 / mortality at 3.1 µg/mL / mortality at 6.25 µg/mL / mortality at 12.5 µg/mL / mortality at 25 µg/mL / mortality at 50 µg/mL / mortality at 100 µg/mL: Meloidogyne incognita
# Protocol: Materials: the tested nematodes were collected from three different areas, namely cucumber crops in Dawenkou Town, Tai'an City, Shandong Province, and were all identified as southern root-knot nematodes (Meloidogyne incognita). The diseased roots were washed, cut into small sections of 0.5 cm to 1 cm, rinsed in 1% NaClO solution for about 30 s to 60 s, and rinsed with 200-mesh and 500-mesh sieves to collect nematode eggs for later use. The collected eggs were incubated at 25° C. using the Bayman funnel method and the second-instar larvae were collected 1 time per 24 h to ensure that the second-instar larvae selected each time were fresh and of consistent vitality.
# The agent was 98% sulfoxamyl technical, and the comparison agents were 96% oxamyl technical and 87% fosthiazate technical.
# The preparation for the agent was in accordance with the provisions for preparation of the liquid medicine in the Agricultural Industry Standard of the People's Republic of China NYT 1833.1-2009 “Guideline for laboratory bioassay of pesticides”, as shown in Table 6.
# Methods: according to the experimental plan, the test agent was diluted to different mass concentrations, and 0.5 mL of the agent solution and 0.5 mL of the nematode solution (containing about 100 nematodes) were added into a 24-well cell culture plate. The treatment with each concentration of the agent was repeated 4 times, and auxiliary agent control and blank control were also conducted. […]
smiles,measurement,setting,value
"CNC(=O)O/N=C(/C(=O)N(C)C)S(C)(=O)=O [Sulfoxamyl, N,N-dimethyl-2-[[[(methylamino)carbonyl]oxy]imino]-2-(methylsulfonyl)acetamide]",Main clinical symptom,[1]; single oral dose 50 mg/kg,Asymptomatic
same,Death count,"[1]; single oral dose 50 mg/kg, 50 mg/kg",0/6
same,Death count,"[1]; single oral dose 50 mg/kg, listed as sulfoxamyl, 50 mg/kg",no animals die
same,Main clinical symptom,[1]; single oral dose 500 mg/kg,"Some rats with intense abdominal breathing,"
same,Death count,"[1]; single oral dose 500 mg/kg, 500 mg/kg",0/6
same,Death count,"[1]; single oral dose 500 mg/kg, listed as sulfoxamyl, 500 mg/kg",no animals die
same,Main clinical symptom,[1]; single oral dose 1000 mg/kg,"Intense abdominal breathing,"
same,Death count,"[1]; single oral dose 1000 mg/kg, 1000 mg/kg",8/10
same,Death count,"[1]; single oral dose 1000 mg/kg, listed as sulfoxamyl, 1000 mg/kg",8
same,Main clinical symptom,[1]; single oral dose 2000 mg/kg,"Intense abdominal breathing,"
same,Death count,"[1]; single oral dose 2000 mg/kg, 2000 mg/kg",6/6
same,Death count,"[1]; single oral dose 2000 mg/kg, listed as sulfoxamyl, 2000 mg/kg",all animals
same,time to complete decomposition,[2]; neutral conditions,about 8 h
same,Changes in ratio of sulfoxamyl peak area under HPLC,"[2]; neutral distilled water, 25° C., Time 0 h",99.86%
same,Changes in ratio of sulfoxamyl peak area under HPLC,"[2]; neutral distilled water, 25° C., Time 0.5 h",73%
same,Changes in ratio of sulfoxamyl peak area under HPLC,"[2]; neutral distilled water, 25° C., Time 1 h",63%
same,Changes in ratio of sulfoxamyl peak area under HPLC,"[2]; neutral distilled water, 25° C., Time 2 h",48%
same,Changes in ratio of sulfoxamyl peak area under HPLC,"[2]; neutral distilled water, 25° C., Time 3 h",32%
same,Changes in ratio of sulfoxamyl peak area under HPLC,"[2]; neutral distilled water, 25° C., Time 4 h",20%
same,Changes in ratio of sulfoxamyl peak area under HPLC,"[2]; neutral distilled water, 25° C., Time 5 h",11%
same,Changes in ratio of sulfoxamyl peak area under HPLC,"[2]; neutral distilled water, 25° C., Time 6 h",5%
same,Changes in ratio of sulfoxamyl peak area under HPLC,"[2]; neutral distilled water, 25° C., Time 7 h",4%
same,Changes in ratio of sulfoxamyl peak area under HPLC,"[2]; neutral distilled water, 25° C., Time 8 h",3%
same,half-life,"[2]; neutral distilled water, neutral aqueous solution, 25° C.",2 h
same,Corrected mortality,"[3]; 3.1 mg/L, 24 h",16.24% and 26.66% and 16.93%
same,Mortality,"[3]; 3.1 mg/L, 24 h",17.27% and 27.56% and 17.95%
same,Corrected mortality,"[3]; 3.1 mg/L, 48 h",26.21% and 30.50% and 18.49%
same,Death count,"[3]; 3.1 mg/L, 48 h",21 and 30 and 40 and 23
same,Mortality,"[3]; 3.1 mg/L, 48 h",27.27% and 31.50% and 19.66%
same,Corrected mortality,"[3]; 3.1 mg/L, 72 h",36.09% and 39.84% and 31.21%
same,Death count,"[3]; 3.1 mg/L, 72 h",39 and 41 and 52 and 38
same,Mortality,"[3]; 3.1 mg/L, 72 h",37.27% and 40.94% and 32.48%
same,Corrected mortality,"[3]; 6.25 mg/L, 24 h",22.19% and 15.49% and 28.36%
same,Death count,"[3]; 6.25 mg/L, 24 h",19 and 25 and 20 and 31
same,Mortality,"[3]; 6.25 mg/L, 24 h",23.15% and 16.53% and 29.25%
same,Corrected mortality,"[3]; 6.25 mg/L, 48 h",30.48% and 22.86% and 33.96%
same,Death count,"[3]; 6.25 mg/L, 48 h",36 and 34 and 29 and 37
same,Mortality,"[3]; 6.25 mg/L, 48 h",31.48% and 23.97% and 34.91%
same,Corrected mortality,"[3]; 6.25 mg/L, 72 h",32.08% and 27.59% and 38.49%
same,Death count,"[3]; 6.25 mg/L, 72 h",41 and 36 and 35 and 42
same,Mortality,"[3]; 6.25 mg/L, 72 h",33.33% and 28.93% and 39.62%
same,Corrected mortality,"[3]; 12.5 mg/L, 24 h",43.94% and 48.97% and 49.86%
same,Death count,"[3]; 12.5 mg/L, 24 h",56 and 54 and 62 and 53
same,Mortality,"[3]; 12.5 mg/L, 24 h",44.63% and 49.60% and 50.48%
same,Corrected mortality,"[3]; 12.5 mg/L, 48 h",56.40% and 56.17% and 57.49%
same,Death count,"[3]; 12.5 mg/L, 48 h",67 and 69 and 71 and 61
same,Mortality,"[3]; 12.5 mg/L, 48 h",57.02% and 56.80% and 58.10%
same,Corrected mortality,"[3]; 12.5 mg/L, 72 h",61.27% and 67.40% and 67.01%
same,Death count,"[3]; 12.5 mg/L, 72 h",71 and 75 and 85
same,Mortality,"[3]; 12.5 mg/L, 72 h",61.98% and 68.00% and 67.62%
same,Corrected mortality,"[3]; 25 mg/L, 24 h",58.55% and 63.70% and 68.85%
same,Death count,"[3]; 25 mg/L, 24 h",78 and 75 and 68 and 90
same,Mortality,"[3]; 25 mg/L, 24 h",59.06% and 64.15% and 69.23%
same,Corrected mortality,"[3]; 25 mg/L, 48 h",63.25% and 67.46% and 68.78%
same,Death count,"[3]; 25 mg/L, 48 h",78 and 81 and 72 and 90
same,Mortality,"[3]; 25 mg/L, 48 h",63.78% and 67.92% and 69.23%
same,Corrected mortality,"[3]; 25 mg/L, 72 h",74.33% and 84.62% and 68.65%
same,Death count,"[3]; 25 mg/L, 72 h",78 and 95 and 90
same,Mortality,"[3]; 25 mg/L, 72 h",74.80% and 84.91% and 69.23%
same,Corrected mortality,"[3]; 50 mg/L, 24 h",82.02%
same,Death count,"[3]; 50 mg/L, 24 h",101 and 88 and 92
same,Mortality,"[3]; 50 mg/L, 24 h",82.24%
same,Death count,"[3]; 50 mg/L, 48 h",108 and 95 and 111 and 98
same,Corrected mortality,"[3]; 50 mg/L, 72 h",92.38%
same,Death count,"[3]; 50 mg/L, 72 h",115 and 99 and 120 and 101
same,Mortality,"[3]; 50 mg/L, 72 h",92.52%
same,Death count,"[3]; 100 mg/L, 24 h",105 and 102 and 120 and 107
same,Death count,"[3]; 100 mg/L, 48 h",108 and 102 and 121
same,Death count,"[3]; 100 mg/L, 72 h",109 and 102 and 121 and 108
same,LC90,[3]; 24 h,52.89 mg/L
same,LC90,[3]; 48 h,56.41 mg/L
same,LC90,[3]; 72 h,36.84 mg/L
same,LC50,[3]; 24 h,12.5 mg/L
same,mortality at 3.1 µg/mL,"[3]; 24 h, 3.1 mg/L",14.4%
same,mortality at 6.25 µg/mL,"[3]; 24 h, 6.25 mg/L",16.4%
same,mortality at 12.5 µg/mL,"[3]; 24 h, 12.5 mg/L",51.4%
same,mortality at 25 µg/mL,"[3]; 24 h, 25 mg/L",66.1%
same,mortality at 50 µg/mL,"[3]; 24 h, 50 mg/L",86.3%
same,mortality at 100 µg/mL,"[3]; 24 h, 100 mg/L",96.3%
same,mortality at 3.1 µg/mL,"[3]; 24 h, read-out: Corrected mortality, 3.1 mg/L, 24 h",13.4%
same,mortality at 6.25 µg/mL,"[3]; 24 h, read-out: Corrected mortality, 6.25 mg/L, 24 h",15.3%
same,mortality at 12.5 µg/mL,"[3]; 24 h, read-out: Corrected mortality, 12.5 mg/L, 24 h",50.8%
same,mortality at 25 µg/mL,"[3]; 24 h, read-out: Corrected mortality, 25 mg/L, 24 h",65.7%
same,mortality at 50 µg/mL,"[3]; 24 h, read-out: Corrected mortality, 50 mg/L, 24 h",86.2%
same,mortality at 100 µg/mL,"[3]; 24 h, read-out: Corrected mortality, 100 mg/L, 24 h",96.3%
same,LC50,[3]; 48 h,10.2 mg/L
same,mortality at 3.1 µg/mL,"[3]; 48 h, 3.1 mg/L",20.2%
same,mortality at 6.25 µg/mL,"[3]; 48 h, 6.25 mg/L",31%
same,mortality at 12.5 µg/mL,"[3]; 48 h, 12.5 mg/L",61.5%
same,mortality at 25 µg/mL,"[3]; 48 h, 25 mg/L",66.1%
same,mortality at 50 µg/mL,"[3]; 48 h, 50 mg/L",92.3%
same,mortality at 100 µg/mL,"[3]; 48 h, 100 mg/L",99.1%
same,mortality at 3.1 µg/mL,"[3]; 48 h, read-out: Corrected mortality, 3.1 mg/L, 48 h",19%
same,mortality at 6.25 µg/mL,"[3]; 48 h, read-out: Corrected mortality, 6.25 mg/L, 48 h",30%
same,mortality at 12.5 µg/mL,"[3]; 48 h, read-out: Corrected mortality, 12.5 mg/L, 48 h",60.9%
same,mortality at 25 µg/mL,"[3]; 48 h, read-out: Corrected mortality, 25 mg/L, 48 h",65.6%
same,mortality at 50 µg/mL,"[3]; 48 h, read-out: Corrected mortality, 50 mg/L, 48 h",92.2%
same,mortality at 100 µg/mL,"[3]; 48 h, read-out: Corrected mortality, 100 mg/L, 48 h",99.1%
same,LC50,[3]; 72 h,7.41 mg/L
same,mortality at 3.1 µg/mL,"[3]; 72 h, 3.1 mg/L",37.5%
same,mortality at 6.25 µg/mL,"[3]; 72 h, 6.25 mg/L",35.3%
same,mortality at 12.5 µg/mL,"[3]; 72 h, 12.5 mg/L",65.1%
same,mortality at 25 µg/mL,"[3]; 72 h, 25 mg/L",66.1%
same,mortality at 50 µg/mL,"[3]; 72 h, 50 mg/L",98.3%
same,mortality at 100 µg/mL,"[3]; 72 h, 100 mg/L",100%
same,mortality at 3.1 µg/mL,"[3]; 72 h, read-out: Corrected mortality, 3.1 mg/L, 72 h",36.3%
same,mortality at 6.25 µg/mL,"[3]; 72 h, read-out: Corrected mortality, 6.25 mg/L, 72 h",34.1%
same,mortality at 12.5 µg/mL,"[3]; 72 h, read-out: Corrected mortality, 12.5 mg/L, 72 h",64.5%
same,mortality at 25 µg/mL,"[3]; 72 h, read-out: Corrected mortality, 25 mg/L, 72 h",65.5%
same,mortality at 50 µg/mL,"[3]; 72 h, read-out: Corrected mortality, 50 mg/L, 72 h",98.3%
same,mortality at 100 µg/mL,"[3]; 72 h, read-out: Corrected mortality, 100 mg/L, 72 h",100%
same,"killing (indoor nematicidal) activity against Meloidogyne incognita J2, in words",[3]; compared with oxamyl and fosthiazate,high killing activity; also recorded: higher than that of oxamyl; also recorded: higher than that of fosthiazate
